# Measurements as given in patent US9326511B2, “Methods of inhibiting microbial biofilms” (priority 2008, dated 2016).
# “Also recorded” adds a separate entry of the source. Where two headings read alike, the source gives them in different places. Marks after values point to notes of the source that are not given here.
# Legend:
# E. coli cells = test: Binding of compounds with bacterial cells (spectrofluorimetric analysis of cell lysates); details: 5 min incubation
# Method: […] At the end of the incubation period, the cells were sedimented by centrifugation to remove the fraction of unbound test compound and the cell pellet was resuspended in 2 ml of 2% SDS to obtain cell lysates. After overnight incubation with SDS, the amount of cell-bound test compound was estimated by spectrofluorimetric analysis of the cell lysates. The concentration of the compounds in the cell lysates was calculated by measuring the intensities at the maximum of the emission fluorescence spectrum and interpolating the data on a calibration plot. The amount of cell-bound test compound was expressed as nmoles of compound per mg of cell protein. The protein concentration was determined by the method of Lowry (Lowry et al., 1951, J. Biol. Chem. 193:265-275).
# All experiments were run in triplicate and the results represent the average of 3 determinations with standard deviations.
# [1] = Chemical stability, qualitative stress tests (HPLC, LC-MS); assay type: physicochemical; details: solid, aqueous solution, PBS, 7 days each at 50, 70 and 90° C.
# Method: The following HPLC methodology was established for the analysis of the exemplary compounds of the invention.
# The method involves detection by UV at a wavelength of 420 nm, which is very specific for these compounds. In order to monitor impurities not related to the porphyrin structure (and therefore not absorbing at 420 nm) UV spectra of the whole chromatograms were also recorded between 200 nm and 700 nm by DAD (diode array detector) in certain experiments. • Column: Zorbax Phenyl, 250×4.6 mm, 5 µm • Eluent A: 1.5 g sodium dodecylsulfate+1 mL formic acid in 1000 mL water • Eluent B: 1.5 g sodium dodecylsulfate+1 mL formic acid in 200 mL water+800 mL tetrahydrofurane • Gradient:
# • Flow rate: 0.4 mL/min • Detection: 420 nm • Column temperature: 25° C. • Injection volume: 10 μl • Solutions: Porphyrin derivatives were dissolved in eluent A to give a final concentration of approximately 0.3 mg/ml.
# Qualitative stress tests were undertaken on the exemplary compounds of the invention. Analysis was undertaken by HPLC & LC-MS. The compounds were stress tested in solid form, in an aqueous solution and a solution made up in phosphate-buffered saline buffer. The samples were initially incubated for 7 days at 50° C. and a sample removed for testing. The samples were then incubated for a further 7 days at 70° C., samples removed as before and the samples incubated further for 7 days at 90° C. HPLC analysis of freshly prepared solutions was undertaken and compared to the samples after 7, 14 and 21 days incubation. A visual comparison of the chromatograms was then undertaken and the content of the main products and by-products as area percentage values determined (see FIG. 4).
# S. aureus 8325-4 = details: previous studies (Oliva et al., 2003); cited from earlier work
# S. aureus SH1000 = test: Planktonic MIC by broth microdilution (BSAC guidelines); assay type: cell-based, Staphylococcus aureus
# Method: (§1) Methods: MICs were determined for planktonic cultures by broth microdilution according to British Society for Antimicrobial Chemotherapy (BSAC) guidelines. Biofilm MICs (bMIC) and minimum biofilm eradication concentrations (MBECs) were determined using the Calgary biofilm device. The effect of Compound 10 on the viability of cold culture cells was determined by growing S. aureus SH1000 to early exponential phase at 37° C. and resuspending the cells in pre-chilled media, where they were maintained in the presence and absence of Compound 10 and control agents. The effect of Compound 10 on slow growing cells expressing the stringent response was also determined by growing cultures to early log phase and the stringent response induced by the addition of the isoleucyl-tRNA synthetase inhibitor mupirocin. Compound 10 and control agents were then added and samples recovered for viable cell determinations.
# [2] = tested on: S. aureus SH1000 cold cultures; test: Time-kill against cold cultures (4° C.); assay type: cell-based, Staphylococcus aureus; details: cold culture held at 4° C. for 5 hours, agents at 4×MIC
# Method: as §1
# The effect of XF drugs on the viability of cold culture cells was determined by growing S. aureus SH1000 to early exponential phase at 37° C., harvesting the cells by centrifugation (5,000×g, 10 min.) and resuspending them in pre-chilled media where they were maintained in the presence and absence of XF drugs and control agents for 5 hours. […] (FIG. 11).
# (§2) The anti-staphylococcal activities of Compound 10, Compound 12 and a range of comparator agents against slow-growing cultures of Staphylococcus aureus were studied using standard time-kill methodology (Oliva et al. 2003, Hobbs et al. 2008). Staphylococcus aureus SH1000 cultures were grown to early exponential phase (OD600 nm of 0.2) in Mueller-Hinton broth (MHB) before being exposed to antibacterial agents at 4×MIC. An untreated culture served as the negative control. The experiments were undertaken in triplicate.
# Cold cultures were prepared by growing SH1000 cells to early exponential phase (OD600 nm of 0.2) at 37° C. Cultures were then centrifuged and the cell pellet was resuspended in MHB pre-chilled to 4° C. The killing kinetics of antimicrobial agents were studied as described in the section above, with the exception that cultures were maintained at 4° C. over the 5 hour sampling period.
# [3] = tested on: stringent S. aureus SH1000 cultures; test: Time-kill against cultures expressing the stringent response (induced with mupirocin); assay type: cell-based, Staphylococcus aureus; details: stringent response induced with mupirocin, agents at 4×MIC
# Method: as §1
# When nutrients become limiting for growth bacteria adjust their metabolism from one that supports growth to one that provides for long survival in the absence of nutrients. In many bacteria a key facilitator of this physiological switch, known as the stringent response, is accumulation of guanosine […] and pentaphosphate (Traxler et al., 2008). The antibiotic mupirocin is a strong inducer of the stringent response in S. aureus and effectively causes starvation of charged isoleucyl tRNA by potent inhibition of isoleucy ItRNA synthetase (IRS) (Oliva et al., 2003). The activity of XF drugs against S. aureus SH1000 prevented from growing by the addition of mupirocin (Oliva et al., 2003), was therefore examined (FIG. 10). As an alternative method for arresting growth, bacteria were suspended in cold growth medium (Mascio et al., 2007) and the bactericidal activity of XF drugs was also determined under these conditions (FIG. 11).
# as §2
# The antibiotic mupirocin is a strong inducer of the stringent response in S. aureus and causes starvation of charged isoleucyl tRNA by potent inhibition of isoleucyl tRNA synthetase (IRS) (Oliva et al. 2003, Cassels et al. 1995) Stringency was induced in SH1000 cultures by adding mupirocin (4 mg/L) to cells in the early exponential growth phase (OD600 nm of 0.2) (Oliva et al. 2003, Cassels et al. 1995). Cultures were incubated with mupirocin for 30 minutes before sampling began. Cultures were maintained at 37° C., and samples were taken at 30 minute intervals for 300 minutes, serially diluted in phosphate buffered saline (PBS) and diluted culture was spread on Mueller-Hinton agar and was incubated at 37° C. for 18-24 hours before the number of CFU were counted.
# [4] = tested on: S. aureus SH1000 biofilms; test: Biofilm MIC and minimum biofilm eradication concentration, Calgary Biofilm Device; assay type: cell-based, Staphylococcus aureus; details: Staphylococcus aureus, SH1000BIOFILMS, read-out: bMIC
# Method: as §1
# Biofilm MICs and minimum biofilm eradication concentrations (MBEC) were determined in the Calgary Biofilm Device (Nunc Inc, Roskilde, Denmark) as described by Miller et al., 2005. This involves the following steps. Aliquots (200 μL) of exponential phase cultures of strain SH1000 were added to each well of a 96-well microtitre tray. The lid assembly, which has 96 polystyrene pegs corresponding to each well, was then replaced and the system incubated for 24 hours at 37° C. on a rocking platform. Following this a biofilm of approximately 10^7 cfu matured on each peg. The lid was then washed twice in phosphate-buffered saline (PBS) to remove residual planktonic growth and then placed into a microtitre tray with fresh media containing doubling dilutions of the test antibiotic. The system was then incubated for 24 hours at 37° C. on a rocking platform. The MIC was defined as the lowest concentration of antibiotic completely inhibiting visible growth after this incubation. After the MIC was recorded, the lid assembly was again washed twice in PBS to remove planktonic cells and remaining antibiotic and then placed into fresh drug-free media. The system was incubated for a further 24 hours and the MBEC was defined as the lowest concentration of antibiotic completely inhibiting the re-establishment of planktonic growth.
# staphylococci = details: cited from earlier work; for MIC Values: literature value (Critchley et al. 2003)
# [5] = planktonic S. aureus SH1000 (Table 6)
compound,measurement,setting,value
"CN(C)CCC[N+](C)(C)CCCOc1ccc(-c2c3nc(cc4ccc([nH]4)c(-c4ccc(OCCC[N+](C)(C)CCCN(C)C)cc4)c4nc(cc5ccc2[nH]5)C=C4)C=C3)cc1.[Cl-].[Cl-] [Compound 8, 5,15-bis-(4-{3-[(3-Dimethylamino-propyl)-dimethyl-ammonio]-propyloxy}-phenyl)-porphyrin dichloride]",Bound compound,"E. coli cells; 0.01 μM compound, 0 washings",0.024 ± 0.01 nmoles/mg cell proteins
same,Bound compound,"E. coli cells; 0.01 μM compound, 3 washings",0.009 ± 0.001 nmoles/mg cell proteins
same,Bound compound,"E. coli cells; 0.1 μM compound, 0 washings",0.056 ± 0.02 nmoles/mg cell proteins
same,Bound compound,"E. coli cells; 0.1 μM compound, 3 washings",0.030 ± 0.02 nmoles/mg cell proteins
same,Bound compound,"E. coli cells; 0.5 μM compound, 0 washings",0.522 ± 0.2 nmoles/mg cell proteins
same,Bound compound,"E. coli cells; 0.5 μM compound, 3 washings",0.274 ± 0.15 nmoles/mg cell proteins
same,Bound compound,"E. coli cells; 1 μM compound, 0 washings",3.670 ± 0.7 nmoles/mg cell proteins
same,Bound compound,"E. coli cells; 1 μM compound, 3 washings",2.230 ± 0.8 nmoles/mg cell proteins
same,Chemical stability under stress,[1],less stable than Compounds 10 and 12
C[C@@H]1O[C@@H]1P(=O)(O)O [Fosfomycin],effect of the stringent response on bactericidal activity,S. aureus 8325-4,completely abolishes the bactericidal activity
same,MIC,"S. aureus SH1000; Staphylococcus aureus, planktonic S. aureus SH1000 (Table 5), read-out: MIC",16 µg/mL
same,MIC,S. aureus SH1000; [5],16 µg/mL
same,viability / bactericidal activity in time-kill (in words),[2],no loss of viability
same,viability / bactericidal activity in time-kill (in words),[3],no loss of viability; also recorded: completely attenuated
same,MIC,"[4]; 24 h, biofilm MIC, S. aureus SH1000, Calgary Biofilm Device, 24 hours (Table 6)",8 µg/mL
same,MIC,"[4]; biofilm MIC, S. aureus SH1000, Calgary device (Example H)",8 µg/mL
CN[C@H](CC(C)C)C(=O)N[C@H]1C(=O)N[C@@H](CC(N)=O)C(=O)N[C@H]2C(=O)N[C@H]3C(=O)N[C@H](C(=O)N[C@H](C(=O)O)c4cc(O)cc(O)c4-c4cc3ccc4O)[C@H](O)c3ccc(c(Cl)c3)Oc3cc2cc(c3O[C@@H]2O[C@H](CO)[C@@H](O)[C@H](O)[C@H]2O[C@H]2C[C@](C)(N)[C@H](O)[C@H](C)O2)Oc2ccc(cc2Cl)[C@H]1O [Vancomycin],effect of the stringent response on bactericidal activity,S. aureus 8325-4,completely abolishes the bactericidal activity
same,MIC,"S. aureus SH1000; Staphylococcus aureus, SH1000",1 µg/mL
same,MIC,S. aureus SH1000; [5],1 µg/mL
same,viability / bactericidal activity in time-kill (in words),[2],no loss of viability; also recorded: abolished
same,viability / bactericidal activity in time-kill (in words),[3],no loss of viability
same,MBC Values,staphylococci; literature value (Biavasco et al. 1997; Fuchs et al. 2002),4-16^b μg/mL
same,MIC Values,staphylococci,1^a μg/mL
same,MIC,[4]; 24 h,2 µg/mL
same,MIC,[4],2 µg/mL
"CC(=O)NC[C@H]1CN(c2ccc(N3CCOCC3)c(F)c2)C(=O)O1 [Zyvox ® (Linezolid), Linezolid]",MIC Values,staphylococci,4^a μg/mL
N[C@@H]1CON=C1O [cycloserine],effect of the stringent response on bactericidal activity,S. aureus 8325-4,completely abolishes the bactericidal activity
